Laboratory results as given in patent US9624238B2, “4H-thieno[3,2-C]chromene-based inhibitors of Notum Pectinacetylesterase and methods of their use” (Lexicon Pharmaceuticals, Inc., priority 2011, dated 2017).
Values belong to the molecule of their own block, whether it stands above or below them.

Columns and labels:
[1] = target: T1, human notum pectinacetyltransferase (Homo sapiens, UniProt Q6P988); experiment: Binding assay (OPTS esterase substrate, fluorimetric); format: biochemical
T1 construct: made in house; unpurified conditioned medium used
T1 sequence (Q6P988 20-496): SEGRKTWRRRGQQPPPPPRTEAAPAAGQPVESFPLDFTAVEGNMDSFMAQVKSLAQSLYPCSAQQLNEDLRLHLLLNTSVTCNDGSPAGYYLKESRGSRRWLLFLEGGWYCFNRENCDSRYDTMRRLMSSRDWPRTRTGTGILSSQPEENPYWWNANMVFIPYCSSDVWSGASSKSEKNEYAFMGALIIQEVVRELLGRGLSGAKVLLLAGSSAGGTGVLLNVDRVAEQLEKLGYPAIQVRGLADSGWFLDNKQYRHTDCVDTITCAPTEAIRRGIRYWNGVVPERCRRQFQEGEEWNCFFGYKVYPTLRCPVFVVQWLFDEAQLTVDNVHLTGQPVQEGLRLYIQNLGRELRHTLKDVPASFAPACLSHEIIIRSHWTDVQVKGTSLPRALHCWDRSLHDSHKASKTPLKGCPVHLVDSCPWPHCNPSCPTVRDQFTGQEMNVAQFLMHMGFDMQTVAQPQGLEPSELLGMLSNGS
Description: Plasmid containing human notum pectinacetyltransferase in pcDNA3.1(+) vector was transfected into HEK (293 cells and clones were selecting by growing in presence of 400 ug/mL of G418. Condition media from these cells was used for the assay.

[2] = target: T1, human notum pectinacetyltransferase; experiment: Reporter assay (CellSensor LEF/TCF-bla FreeStyle 293F cells, Wnt3a and notum conditioned media); format: cell-based
[3] = given as numeric bound above the legend's highest class

SMILES: O=C(O)c1cc2c(s1)-c1cc(F)cc(Cl)c1SC2
- IC50 ([1]; class symbols): < 50 nM
- EC50 ([2]; class symbols): < 50 nM

SMILES: Cc1cc2c(cc1F)-c1sc(C(=O)O)cc1CS2
- IC50 ([1]; class symbols): < 100 nM
- EC50 ([2]; class symbols): < 50 nM

SMILES: CCOC(=O)c1cc2c(s1)-c1cc(OC)ccc1CC2
- IC50 [1, 3]: > 2000 nM
- EC50 [2, 3]: > 1000 nM

SMILES: CCC1Cc2cc(C(N)=O)sc2-c2c(F)ccc(F)c21 (centres unmarked)
- IC50 ([1]; class symbols): < 50 nM
- EC50 ([2]; class symbols): < 50 nM

SMILES: COc1ccc2c(c1Br)CCc1cc(C(=O)O)sc1-2
- IC50 ([1]; class symbols): < 50 nM
- EC50 ([2]; class symbols): < 50 nM

SMILES: O=C(O)c1cc2c(s1)-c1cc(F)cc(F)c1OC2
- IC50 ([1]; class symbols): < 50 nM
- EC50 ([2]; class symbols): < 50 nM

SMILES: O=C(O)c1cc2c(s1)-c1ccc(C(F)(F)F)cc1OC2
- IC50 ([1]; class symbols): < 1000 nM
- EC50 ([2]; class symbols): < 50 nM

SMILES: O=C(O)c1cc2c(s1)-c1ccc(Cl)c(F)c1SC2
- IC50 ([1]; class symbols): < 50 nM
- EC50 ([2]; class symbols): < 50 nM

SMILES: N#Cc1cc2c(cc1F)OCc1cc(C(=O)O)sc1-2
- IC50 ([1]; given as a numeric bound above the legend's range): > 2000 nM
- EC50 ([2]; class symbols): < 100 nM

SMILES: Cc1ccc2c(c1F)OCc1cc(C(=O)O)sc1-2
- IC50 ([1]; class symbols): < 1000 nM
- EC50 ([2]; class symbols): < 50 nM

SMILES: O=C(c1cc2c(s1)-c1ccc(F)c(F)c1CC2)N1CCC(F)C1 (centres unmarked)
- IC50 ([1]; class symbols): < 100 nM
- EC50 ([2]; class symbols): < 50 nM

SMILES: O=C(O)c1cc2c(s1)-c1ccsc1CC2
- IC50 ([1]; class symbols): < 50 nM
- EC50 ([2]; class symbols): < 500 nM

SMILES: O=C(O)c1cc2c(s1)-c1ccc(Br)cc1CC2
- IC50 ([1]; class symbols): < 1000 nM
- EC50 ([2]; class symbols): < 50 nM

Second part, the molecule after the results:

- IC50 ([1]; class symbols): < 1000 nM
- EC50 ([2]; class symbols): < 500 nM
SMILES: CC(C)(C#N)NC(=O)c1cc2c(s1)-c1ccccc1CC2

- IC50 ([1]; class symbols): < 50 nM
- EC50 ([2]; class symbols): < 50 nM
SMILES: NC(=O)c1cc2c(s1)-c1c(Cl)ccc(Cl)c1OC2

- IC50 ([1]; class symbols): < 2000 nM
- EC50 ([2]; class symbols): < 50 nM
SMILES: O=C(O)c1cc2c(s1)-c1ccc(F)cc1OC2

- IC50 ([1]; class symbols): < 50 nM
- EC50 ([2]; class symbols): < 50 nM
SMILES: NC(=O)c1cc2c(s1)-c1cccc(F)c1OC2

- IC50 ([1]; class symbols): < 2000 nM
- EC50 ([2]; class symbols): < 50 nM
SMILES: Cc1ccc(C)c2c1OCc1cc(C(=O)O)sc1-2

- IC50 ([1]; class symbols): < 100 nM
- EC50 ([2]; class symbols): < 50 nM
SMILES: O=C(O)c1cc2c(s1)-c1cc(F)c(F)cc1OC2
